Measurements as given in PubChem BioAssay AID1159564 (GlaxoSmithKline (GSK), 2015).
Activity calls are given as the source filed them. The rule behind the calls is not given here.

System: L. donovani-infected THP-1 macrophages, intracellular amastigote imaging
Assay: antileishmanial activity in infected THP-1 macrophages – imaging, THP-1 host macrophages, host toxicity (AID 1159564)
[1] = measured here: THP-1 host cell toxicity
[2] = measured here: amastigotes per macrophage

SMILES | IC50 | IC50 [1] [µM] | IC50 [2] [µM]
CN(C)CCN(C)Cc1ccc(Cl)cc1NS(=O)(=O)c1ccc(Cl)c(Cl)c1 | 6.3 µM | 32 | 4
O=S(=O)(c1ccccc1C(F)(F)F)N1CCN(Cc2ccc(-n3ccnc3)cc2)CC1 | > 50 µM (inactive) | 16 | 25
O=C(Nc1ccccc1)Nc1nc(-c2ccccn2)cs1 | 0.4 µM | 6.3 | 0.25
Cc1cc(C)n(-c2nc(NC(C)(C)C)nc(N3CCOCC3)n2)n1 | 7.9 µM | > 50 | 4
CN1C(=O)c2ccccc2Sc2ccc(NC(=O)NCc3ccco3)cc21 | > 50 µM (inactive) | > 50 | 25
COc1ccc(-c2cc(C)no2)cc1S(=O)(=O)Nc1ccc(C)c(C)c1 | 2.5 µM | > 50 | 2
O=C(c1cc2cc(Cl)ccc2[nH]1)N1CCCCC1c1cccnc1 (configuration not stated) | 32 µM | 16 | 10
CC(=O)Nc1ccc(-c2cnc(N)c(-c3nc4ccc(F)cc4[nH]3)c2)cc1 | 1 µM | 7.9 | 0.5
Oc1c(-c2n[nH]c(CCc3ccccc3)n2)ncc2cccnc12 | 4 µM | 20 | 3.2
CNC(=O)C1Cc2ccccc2N1C(=O)Cc1ccc(F)cc1 (configuration not stated) | > 50 µM (inactive) | > 50 | > 50
O=C(c1cccc(Nc2ncc(-c3ccc4c(c3)OCO4)cn2)c1)N1CCSC1 | 2 µM | 13 | 1
c1ccc(-c2nc(NC3CCCC3)c3ccccc3n2)nc1 | 2 µM | 20 | 1.3
CCc1cccc(CC)c1-n1c(SCC(=O)NC(=O)NCc2ccco2)nnc1-c1cccnc1 | > 50 µM (inactive) | > 50 | > 50
Cc1cc2nc(N3CC[C@H]3C(N)=O)nc(Nc3cc(C4CC4)[nH]n3)c2s1 | 2 µM | 0.79 | 1.3
O=C(NCCc1ccn(-c2ccccc2)n1)C1CCCCC1 | > 50 µM (inactive) | > 50 | > 50
CCC(=O)Nc1ccc(C(=O)Nc2ccccc2-c2ccccc2)cc1 | 20 µM | 16 | 25
O=C(O)[C@H]1C[C@@H]1c1ccc(-c2ccc(CN(CCc3ccccn3)C(=O)C3CCC3)cc2)cc1 | > 50 µM (inactive) | > 50 | > 50

SMILES | IC50 | IC50 [1] [µM] | IC50 [2] [µM]
Cc1ccc(-c2csc(NC(=O)C=Cc3ccc(S(=O)(=O)N4CCOCC4)cc3)n2)o1 | 5 µM | > 50 | 0.79
COc1ccc(CN2CCCCC2c2nc(-c3cccnc3)no2)cc1 (configuration not stated) | > 50 µM (inactive) | > 50 | > 50
CC(C)(C)CC(=O)NCCc1csc(-c2ccc(F)cc2)n1 | 32 µM | 16 | 16
Cc1ccc(NC(=O)C(C)n2nc([N+](=O)[O-])c(Br)c2C)cc1Cl (configuration not stated) | > 50 µM (inactive) | > 50 | > 50
NS(=O)(=O)c1ccc(Nc2nccc(-c3cnn4ncccc34)n2)cc1 | 2 µM | 0.25 | 1
O=C(Nc1cccc(Cl)c1)N1CCCCC1c1cccnc1 (configuration not stated) | > 50 µM (inactive) | > 50 | > 50
C=CC[C@@H]1CC=C[C@@H](C)N1C(=O)CCc1nnc(-c2ccc3c(c2)OCO3)o1 | 7.9 µM | 13 | 3.2
O=[N+]([O-])c1cccc(Nc2cncc(-c3ccccc3CO)c2)c1 | > 50 µM (inactive) | > 50 | > 50
COc1cc(-c2nc(N3CCOCC3)sc2-c2ccnc(NC3CCOCC3)n2)ccc1Cl | > 50 µM (inactive) | > 50 | 0.02
Cc1ccccc1CNC(=O)CN(Cc1ccccn1)Cc1ccccn1 | 6.3 µM | > 79 | 4
Cn1nccc1NC(=O)Cn1ccc(-c2ccncc2)n1 | > 50 µM (inactive) | > 50 | > 50
COc1cccc(C(=O)[C@H]2C[C@@H]2CN(Cc2cccnc2)Cc2cccnc2)c1 | > 50 µM (inactive) | 40 | 7.9
Cc1[nH]n2c(=O)c3c(nc2c1-c1ccc(Br)cc1)CCCC3 | > 50 µM (inactive) | > 50 | 40
CN(C)S(=O)(=O)c1ccc(-c2cnc(N)c(-c3nc4ccc(F)cc4[nH]3)c2)cc1 | 1.6 µM | 4 | 0.63
O=C(NC(CO)c1ccc(F)cc1)c1ccc(-c2c[nH]c3ncccc23)s1 (configuration not stated) | 25 µM | 10 | 20
CC(C)C[C@H](NC(=O)c1csc(-c2cccs2)n1)C(=O)NC1(C#N)CC1 | > 50 µM (inactive) | > 50 | > 50
Cc1cc(-c2cccc3ccccc23)nc2nc(N)nc(N)c12 | 5 µM | 50 | 1
